# US6020521A, “Macrolide LHRH antagonists” (Abbott Laboratories, priority 1998, dated 2000)
# Target: T1, LHRH rat pituitary receptor (Rattus norvegicus, UniProt P30969)
# T1 construct: from tissue; host or cells: rat pituitary
# T1 sequence (P30969 1-327): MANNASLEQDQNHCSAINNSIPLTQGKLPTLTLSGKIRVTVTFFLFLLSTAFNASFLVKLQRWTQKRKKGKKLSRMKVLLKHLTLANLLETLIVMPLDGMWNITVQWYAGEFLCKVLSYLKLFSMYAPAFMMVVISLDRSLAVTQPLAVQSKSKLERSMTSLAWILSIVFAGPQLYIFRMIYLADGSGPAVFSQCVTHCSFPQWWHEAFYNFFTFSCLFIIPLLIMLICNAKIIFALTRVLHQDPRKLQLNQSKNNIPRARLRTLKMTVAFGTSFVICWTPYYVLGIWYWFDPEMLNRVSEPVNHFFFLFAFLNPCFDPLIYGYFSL
# Test: LHRH rat pituitary receptor binding (pKI)
# Settings: receptor binding affinity, negative logarithm of the equilibrium dissociation constants
# Description: Representative compounds of the present invention were evaluated in in vitro tests for LHRH rat pituitary receptor binding (pKI) and for LH inhibition from rat pituitary cells for antagonist potency (pA2). The tests employed the methods detailed in F. Haviv, et al. J. Med. Chem., 32: 2340-2344 (1989). The receptor binding affinity (pKI) is the negative logarithm of the equilibrium dissociation constants.
Compound,Ki,p KI
"CC[C@H]1OC(=O)[C@H](C)[C@@H](OC(=O)N2C(=O)OC[C@@H]2C)[C@H](C)[C@@H](O[C@@H]2O[C@H](C)C[C@H](N(C)C3CCCCC3)[C@H]2O)[C@](C)(OC)C[C@@H](C)C(=O)[C@H](C)[C@H]2N(CCc3ccc(Cl)cc3)C(=O)O[C@]12C [Example 26, 11-Deoxy-11-[carboxy(4-chlorophenethyl)amino]-3-O-[4-(S)-methyl-oxazolidin-2-one]carbamoyl-5-O-(3'-N-desmethyl-3'-N-cyclohexyl)desosaminyl-6-O-methyl-erythronolide A 11,12-(cyclic carbamate)]",0.166 nM,
"CCCN(C)[C@H]1C[C@@H](C)O[C@@H](O[C@@H]2[C@@H](C)[C@H](OC(=O)N3C(=O)OC[C@@H]3C)[C@@H](C)C(=O)O[C@H](CC)[C@@]3(C)OC(=O)N(CCc4ccc(Cl)cc4)[C@@H]3[C@@H](C)C(=O)[C@H](C)C[C@@]2(C)OC)[C@@H]1O [Example 27, 11-Deoxy-11-carboxy(4-chlorophenethyl)amino]-3-O-[4-(S)-methyl-oxazolidin-2-one]carbamoyl-5-O-(3'-N-desmethyl-3'-N-n-propyl)desosaminyl-6-O-methyl-erythronolide A 11,12-(cyclic carbamate)]",,9.60
"CC[C@H]1OC(=O)[C@H](C)[C@@H](OC(=O)N2C(=O)OC[C@@H]2C)[C@H](C)[C@@H](O[C@@H]2O[C@H](C)C[C@H](N(C)CC3CC3)[C@H]2O)[C@](C)(OC)C[C@@H](C)C(=O)[C@H](C)[C@H]2N(CCc3ccc(F)cc3)C(=O)O[C@]12C [Example 28, 11-Deoxy-11-[carboxy(4-fluorophenethyl)amino]-3-O-[4-(S)-methyl-oxazolidin-2-one]carbamoyl-5-O-(3'-N-desmethyl-3'-N-cyclopropylmethyl)desosaminyl-6-O-methyl-erythronolide A 11,12-(cyclic carbamate)]",0.316 nM,
"CC[C@H]1OC(=O)[C@H](C)[C@@H](OC(=O)N2C(=O)OC[C@@H]2C)[C@H](C)[C@@H](O[C@@H]2O[C@H](C)C[C@H](N(C)C3CCC3)[C@H]2O)[C@](C)(OC)C[C@@H](C)C(=O)[C@H](C)[C@H]2N(CCc3ccc(F)cc3)C(=O)O[C@]12C [Example 29, 11-Deoxy-11-[carboxy(4-fluorophenethyl)amino]-3-O-[4-(S)-methyl-oxazolidin-2-one]carbamoyl-5-O-(3'-N-desmethyl-3'-N-cyclobutyl)desosaminyl-6-O-methyl-erythronolide A 11,12-(cyclic carbamate)]",0.105 nM,
"CC[C@H]1OC(=O)[C@H](C)[C@@H](OC(=O)N2C(=O)OC[C@@H]2C)[C@H](C)[C@@H](O[C@@H]2O[C@H](C)C[C@H](N(C)C3CCCC3)[C@H]2O)[C@](C)(OC)C[C@@H](C)C(=O)[C@H](C)[C@H]2N(CCc3ccc(F)cc3)C(=O)O[C@]12C [Example 30, 11-Deoxy-11-[carboxy(4-fluorophenethyl)amino]-3-O-[4-(S)-methyl-oxazolidin-2-one]carbamoyl-5-O-(3'-N-desmethyl-3'-N-cyclopentyl)desosaminyl-6-O-methyl-erythronolide A 11,12-(cyclic carbamate)]",0.129 nM,
"CCCN(C)[C@H]1C[C@@H](C)O[C@@H](O[C@@H]2[C@@H](C)[C@H](OC(=O)N3C(=O)OC[C@@H]3C)[C@@H](C)C(=O)O[C@H](CC)[C@@]3(C)OC(=O)N(CCc4ccc(F)cc4)[C@@H]3[C@@H](C)C(=O)[C@H](C)C[C@@]2(C)OC)[C@@H]1O [Example 31, 11-Deoxy-11-[carboxy(4-fluorophenethyl)amino]-3-O-[4-(S)-methyl-oxazolidin-2-one]carbamoyl-5-O-(3'-N-desmethyl-3'-N-n-propyl)desosaminyl-6-O-methyl-erythronolide A 11,12-(cyclic carbamate)]",0.955 nM,
"CC[C@H]1OC(=O)[C@H](C)[C@@H](OC(=O)N2C(=O)OC[C@@H]2C)[C@H](C)[C@@H](O[C@@H]2O[C@H](C)C[C@H](N(C)C(C)C)[C@H]2O)[C@](C)(OC)C[C@@H](C)C(=O)[C@H](C)[C@H]2N(CCc3ccc(F)cc3)C(=O)O[C@]12C [Example 32, 11-Deoxy-11-[carboxy(4-fluorophenethyl)amino]-3-O-[4-(S)-methyl-oxazolidin-2-one]carbamoyl-5-O-(3'-N-desmethyl-3'-N-isopropyl)desosaminyl-6-O-methyl-erythronolide A 11,12-(cyclic carbamate)]",0.155 nM,
"CC[C@H]1OC(=O)[C@H](C)[C@@H](OC(=O)N2C(=O)OC[C@@H]2C)[C@H](C)[C@@H](O[C@@H]2O[C@H](C)C[C@H](N(C)C3CCC3)[C@H]2O)[C@](C)(OC)C[C@@H](C)C(=O)[C@H](C)[C@H]2N(CCc3ccc(F)c(Cl)c3)C(=O)O[C@]12C [Example 34, 11-Deoxy-11-[carboxy(3-chloro-fluorophenethyl)amino]-3-O-[4-(S)-methyl-oxazolidin-2-one]carbamoyl-5-O-(3'-N-desmethyl-3'-N-cyclobutyl)desosaminyl-6-O-methyl-erythronolide A 11,12-(cyclic carbamate)]",0.0832 nM,
"CC[C@H]1OC(=O)[C@H](C)[C@@H](OC(=O)N2C(=O)OC[C@@H]2C)[C@H](C)[C@@H](O[C@@H]2O[C@H](C)C[C@H](N(C)C3CCCC3)[C@H]2O)[C@](C)(OC)C[C@@H](C)C(=O)[C@H](C)[C@H]2N(CCc3ccc(F)c(Cl)c3)C(=O)O[C@]12C [Example 35, 11-Deoxy-11-[carboxy(3-chloro-4-fluorophenethyl)amino]-3-O-[4-(S)-methyl-oxazolidin-2-one]carbamoyl-5-O-(3'-N-desmethyl-3'-N-cyclopentyl)desosaminyl-6-O-methyl-erythronolide A 11,12-(cyclic carbamate)]",0.851 nM,
"CC[C@H]1OC(=O)[C@H](C)[C@@H](OC(=O)N2C(=O)OC[C@@H]2C)[C@H](C)[C@@H](O[C@@H]2O[C@H](C)C[C@H](N(C)CC3CC3)[C@H]2O)[C@](C)(OC)C[C@@H](C)C(=O)[C@H](C)[C@H]2N(CCc3ccc(Cl)c(F)c3)C(=O)O[C@]12C [Example 36, 11-Deoxy-11-[carboxy(4-chloro-3-fluorophenethyl)amino]-3-O-[4-(S)-methyl-oxazolidin-2-one]carbamoyl-5-O-(3'-N-desmethyl-3'-N-cyclopropylmethyl)desosaminyl-6-O-methyl-erythronolide A 11,12-(cyclic carbamate)]",3.72 nM,
"CC[C@H]1OC(=O)[C@H](C)[C@@H](OC(=O)N2C(=O)OC[C@H]2C)[C@H](C)[C@@H](O[C@@H]2O[C@H](C)C[C@H](N(C)CC3CC3)[C@H]2O)[C@](C)(OC)C[C@@H](C)C(=O)[C@H](C)[C@H]2N(CCc3ccc(Cl)c(Cl)c3)C(=O)O[C@]12C [Example 37, 11-Deoxy-11-[carboxy(3,4-dichlorophenethyl)amino]-3-O-[4-(R)-methyl-oxazolidin-2-one]carbamoyl-5-O-(3'-N-desmethyl-3'-N-cyclopropylmethyl)desosaminyl-6-O-methyl-erythronolide A 11,12-(cyclic carbamate)]",5.37 nM,
"CC[C@H]1COC(=O)N1C(=O)O[C@H]1[C@H](C)[C@@H](O[C@@H]2O[C@H](C)C[C@H](N(C)CC3CC3)[C@H]2O)[C@](C)(OC)C[C@@H](C)C(=O)[C@H](C)[C@H]2N(CCc3ccc(Cl)c(Cl)c3)C(=O)O[C@]2(C)[C@@H](CC)OC(=O)[C@@H]1C [Example 38, 11-Deoxy-11-[carboxy(3,4-dichlorophenethyl)amino]-3-O-[4-(S)-ethyl-oxazolidin-2-one]carbamoyl-5-O-(3'-N-desmethyl-3'-N-cyclopropylmethyl)desosaminyl-6-O-methyl-erythronolide A 11,12-(cyclic carbamate)]",6.76 nM,
"CC[C@H]1OC(=O)[C@H](C)[C@@H](OC(=O)N2C[C@@H](C)OC2=O)[C@H](C)[C@@H](O[C@@H]2O[C@H](C)C[C@H](N(C)CC3CC3)[C@H]2O)[C@](C)(OC)C[C@@H](C)C(=O)[C@H](C)[C@H]2N(CCc3ccc(Cl)c(Cl)c3)C(=O)O[C@]12C [Example 39, 11-Deoxy-11-[carboxy(3,4-dichlorophenethyl)amino]-3-O-[5-(R)-methyl-oxazolidin-2-one]carbamoyl-5-O-(3'-N-desmethyl-3'-N-cyclopropylmethyl)desosaminyl-6-O-methyl-erythronolide A 11,12-(cyclic carbamate)]",2.82 nM,
"CC[C@H]1OC(=O)[C@H](C)[C@@H](OC(=O)N2C(=O)SC[C@@H]2C)[C@H](C)[C@@H](O[C@@H]2O[C@H](C)C[C@H](N(C)CC3CC3)[C@H]2O)[C@](C)(OC)C[C@@H](C)C(=O)[C@H](C)[C@H]2N(CCc3ccc(Cl)c(Cl)c3)C(=O)O[C@]12C [Example 40, 11-Deoxy-11-[carboxy(3,4-dichlorophenethyl)amino]-3-O-[4-(S)-methyl-thiazolidin-2-one]carbamoyl-5-O-(3'-N-desmethyl-3'-N-cyclopropylmethyl)desosaminyl-6-O-methyl-erythronolide A 11,12-(cyclic carbamate)]",8.13 nM,
"CC[C@H]1OC(=O)[C@H](C)[C@@H](OC(=O)N2C(=S)OC[C@@H]2C)[C@H](C)[C@@H](O[C@@H]2O[C@H](C)C[C@H](N(C)CC3CC3)[C@H]2O)[C@](C)(OC)C[C@@H](C)C(=O)[C@H](C)[C@H]2N(CCc3ccc(Cl)c(Cl)c3)C(=O)O[C@]12C [Example 41, 11-Deoxy-11-[carboxy(3,4-dichlorophenethyl)amino]-3-O-[4-(S)-methyl-oxazolidin-2-thione]carbamoyl-5-O-(3'-N-desmethyl-3'-N-cyclopropylmethyl)desosaminyl-6-O-methyl-erythronolide A 11,12-(cyclic carbamate)]",10.2 nM,
